Columns and labels:
[1] = TK assay, intravenous mixture dosing: serum concentrations and noncompartmental analysis (sparse data); conditions: IV mixture dosing, NCA, n=12
Protocol: (§1) The experiment was carried out on thirty 10-wk old female New Zealand white rabbits (INRA 1777 line) weighing 2.37±0.14kg . […] Blood samples were taken at the designated time points post IV and oral administration: 15 min, 30 min, 1 h, 2 h, 4 h, 8 h, 12 h, 24 h, 3 d, 7 d, and 28 d from groups of 3 or 6 rabbits at each sampling time. Each rabbit was sampled 3 times and 3 rabbits were sampled at each sampling time, except at 30 min post administration, when 6 samples were collected to provide a sufficient blood volume for assaying the compounds. The doses and assay time points were selected to allow the calculation of TK parameters (Table 1) based on preliminary TK data. Residual concentrations of the compounds, and their possible evolution over time, were determined by sampling six entirely untreated rabbits during the TK study on the day of drug administrations, then 14 d and 28 d later.
(§2) The volume administered was adjusted to the animal’s body weight (BW) recorded the day before.
(§3) Intravenous administrations were performed via an indwelling catheter (22G Terumo, 0.9×25mm ) just after its insertion into an ear vein. […] For oral administrations, the mixture of all compounds ( 4mL/kg ) was deposited directly in the mouth of rabbits using a catheter (22G BD Insyte 22G, 0.9×25mm ). Prior to the study, the rabbits had been trained to gradually swallow water and then corn oil.
(§4) Blood samples were collected from the auricular artery using a 20 G needle ( 0.9×25mm ) and a dry tube. The first two blood samples were 8–10mL in volume, whereas a large volume (about 20mL ) was obtained antemortem immediately after electrical stunning (95LX rabbit stunner; Burdis), followed by exsanguination.
(§5) Serum concentration-time profiles of the different compounds were first analyzed using a noncompartmental approach (NCA) involving a sparse data option. Sparse data methodology consists of calculating TK parameters based on the mean profile of all the subjects in the dataset and is appropriate when a rich data series cannot be obtained, as in the present experiment ([FDA 1999]). The area under the concentration time curve ( AUC0−tlast ) and the area under the first moment curve ( AUMC0−tlast ) from dosing time ( t=0 ) to the time of the last measurable concentration were calculated using the linear trapezoidal rule after IV and oral dosing. The area under the serum concentration time curve from dosing time to infinity ( AUC0−inf ) was obtained by adding to AUC0−tlast the area extrapolated from the time of the last measurable concentration to infinity by dividing the last quantifiable serum concentration by the slope of the terminal phase ( λZ ), as estimated by linear regression using the best fit option of Phoenix®.
(§6) The clearance (CL) and apparent clearance (CL_F) were respectively estimated after IV and oral administrations by dividing the administered dose by the AUC0−inf calculated for each analyte.
(§7) The terminal half-life (HL) was estimated with Equation 1: (1) HL=0.69315/λZ where λz is the slope of the terminal phase.
The mean residence time (MRT) was estimated using Equation 3: (3) MRT=AUMCiv0−tlast /AUCiv0−tlast , where AUCMiv0−tlast and AUCiv0−tlast are the values of AUMC0−tlast and AUC0−tlast obtained after IV dosing.
The steady-state volume of distribution ( VSS ) was estimated using Equation 4: (4) VSS=CL×MRT, with CL and MRT as defined above.

[2] = TK assay, oral mixture dosing: serum concentrations and noncompartmental analysis (sparse data); conditions: oral mixture dosing, NCA, n=12
Protocol: as §1, §2, §3, §4, §5, §6, §7
The oral bioavailability (F) was estimated using Equation 2: (2) F=AUCvo0−tlast×Doseiv/AUCiv0−tlast×Dosevo, where AUCiv0−tlast and AUCvo0-tlast are the values of AUC0−tlast obtained after IV and oral dosing, respectively, and Doseiv and Dosevo are the IV and oral doses.

[3] = Estimation of loading and daily maintenance doses and NLME model simulations; parameters: species or system female rabbits; conditions: oral; for Computed maintenance dose: daily; for Computed maintenance dose / Computed loading dose: scaled to the targeted CSS of Table 6
Protocol: The ultimate goal of this TK investigation was to compute a dosage regimen that allowed targeted steady-state serum concentrations to be attained rapidly for a planned TK/TD trial on the reprotoxic effect of a mixture of environmental contaminants in female rabbits. […] With that in mind, the loading and the daily maintenance doses of each compound were evaluated using Equations 12 and 13, respectively.
This risk was also the reason why the NLME model was employed to simulate the time development of the amounts of compounds in the central and peripheral compartments following administration of the daily maintenance dose of each compound over the same duration.
The loading and maintenance doses computed to ensure a nominal CSS of 1 ng/mL were scaled to determine the doses to be administrated by oral route to female rabbits to maintain the targeted CSS .

[4] = Nonlinear mixed effect (NLME) compartmental modeling of merged IV and oral serum concentrations
Text: A nonlinear mixed effect (NLME) modeling approach was used to analyze simultaneously all data obtained from the different rabbits after both IV and oral administrations and to provide robust estimates of the typical TK parameters.
The primary parameters of the model, namely the volume of distribution of the central compartment (V1), the first-order rate constants ( K10 , K12 , K21 , and Kabs plus K13 , K31 for PFOA) and the bioavailability (F) and their associated precisions [standard error (SE)] were estimated by minimizing an objective function value (OFV) expressed as minus twice the log of the likelihood estimation ( −2LL ). […] Marginal likelihood was approximated by using the Laplacian engine by default and, when this engine was unable to determine the SE of the estimate, the Quasi-Random Parametric Expectation Maximization (QRPEM) was selected.
Between subject variability (BSV) of the parameters was measured using the exponential model θparameter_i=θtv_parameter×exp (ηi), where θparameter_i is the parameter estimated for the ith individual, θtv_parameter is the typical population value of the parameter, and ηi is the deviation associated with the ith individual from the corresponding value of the parameter at the population level.
The distribution of ηi was assumed to be normal with a mean of 0 and a variance ω² . BSV was reported as a coefficient of variation (CV) in the original scale CV(%)=100× exp (ω^2)−1 .
The residual variance was modeled using a combined additive and proportional error model Cobsij=Cpredij(1 + ε1ij) + ε2ij, where Cobsij and Cpredij are respectively the jth observed and predicted concentrations for the ith individual, and ε1ij and ε2ij are the multiplicative and additive residual errors.
Secondary parameters were calculated from the population primary parameters.
The clearance values (CL) were estimated using Equation 5: (5) CL=K10×V1, where V1 is the volume of the central compartment and K10 is the elimination rate constant from the central compartment.
The volume of the peripheral compartment (V2) was estimated with Equation 6: (6) V2=V1×(K12/K21), where K12 and K21 are the distribution rate constants between the central and the peripheral compartments.
The clearance of distribution (Q) was estimated using Equation 7: (7) Q=K12×V1, with […] and K12 as defined above.
The volume of distribution associated with the terminal phase was estimated with Equation 10: (10) VZ=CL/λZ, with λZ as defined above.
The AUC was computed as a secondary parameter using Equation 11: (11) AUC=Dose/CL.
The terminal half-life was estimated with Equation 1, as previously described.

[5] = Chronic exposure: daily oral mixture for 17 wk, steady-state serum concentrations; conditions: serum, mean±SD, n=16, after 17 weeks of oral mixture; MEHP after DEHP dosing
Protocol: The objective of this preliminary experiment was to check the ability of our approach to determine the loading and maintenance doses of the eight compounds to be administered simultaneously by oral route to reproduce in female rabbits targeted serum concentrations. The experiment was carried out on thirty-two 2-wk old female New Zealand white rabbits (INRA 1777 line) randomly allocated to a treatment and control groups of 16 rabbits weighing 309±45g and 298±62g , respectively. The treated rabbits were orally administrated a mixture of the eight compounds at a dosage corresponding to the sum of the loading and daily maintenance doses followed by daily administrations of the maintenance dose for 17 wk (see the “Estimation of the doses” section). The control group was orally administrated the vehicle for the same duration.
The volume of the maintenance dosing solution ( 1mL/kg ) was weekly adjusted to the mean BW estimated from the known pattern of growth of the INRA 1777 rabbit line. Oral dosing and antemortem blood sampling were performed as previously described.
Blood samples were left to clot for about 20–30 min at ambient temperature and centrifuged for 20 min at 3,000×g at 25°C. The separated serum was stored in glass tubes at −20°C until assayed.

[6] = rodents; ref Chang et al. 2012; cited from earlier work

## O=C(O)[C@H]1O[C@@H](Oc2ccc(S(=O)(=O)c3ccc(O)cc3)cc2)[C@H](O)[C@@H](O)[C@@H]1O [BPSG, bisphenol S glucuronide]
[1]
  MRT: 3.16 h
[1]; serum
  AUC0−inf: 5.18 µM·h
[1]; serum, doses in Table 2 r3, BPSG after BPS dosing
  Cmax: 5.78 µM
[1]; terminal
  half-life: 3.80 h
[2]; MEHP after oral DEHP
  MRT: 7.66 h
  Tmax: 0.27 h
[2]; serum, MEHP after oral DEHP
  AUC0−inf: 15.8 µM·h
[2]; serum, doses in Table 3 r3, MEHP measured after oral DEHP, BPSG after BPS
  Cmax: 6.91 µM
[2]; terminal, MEHP after oral DEHP
  half-life: 4.23 h

## CCCCC(CC)COC(=O)c1ccccc1C(=O)OCC(CC)CCCC (stereo not shown) [DEHP, di(2-ethylhexyl)phthalate]
[3]
  Computed maintenance dose: 0.78 mg/kg
  Computed loading dose: 0.264 mg/kg
[3]; to maintain serum concentration of 1 ng/mL, daily CL×Css/F, DEHP dose for MEHP in serum
  Daily maintenance dose: 0.013 mg/kg
[3]; to rapidly attain serum concentration of 1 ng/mL, Vss×Css/F, DEHP dose for MEHP in serum
  Loading dose: 0.0044 mg/kg

## O=S(=O)(O)C(F)(F)C(F)(F)C(F)(F)C(F)(F)C(F)(F)C(F)(F)C(F)(F)C(F)(F)F [PFOS, perfluorooctane sulfonate]
[3]
  Computed maintenance dose: 0.0013 mg/kg
  Computed loading dose: 0.06 mg/kg
[4]; NLME model
  Oral bioavailability (F): 100%
[4]; population secondary parameter, mean
  Clearance: lower than 0.01 L/kg/h
[5]
  Observed CSS: 154 ± 25 ng/mL
[6]
  Intestinal absorption: 117%

Source: paper PMC8597046, “Use of Mixture Dosing and Nonlinear Mixed Effect Modeling of Eight Environmental Contaminants in Rabbits to Improve Extrapolation Value of Toxicokinetic Data” (Environmental Health Perspectives, 2021)
